In ChEMBL document CHEMBL1201862, “PubChem BioAssay data set” (2004):
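Tested at 5 concentrations; 48 h exposure; 96-well plates; endpoints linearly interpolated, else capped at highest concentration. GI50 is the concentration that inhibits growth by half.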 Activity calls are given as the source filed them. Rule as the data show it: active = GI50 up to about 1.1 µM and inactive = higher.

Experiments:
Experiment in all cases: NCI anticancer screen, dose series, 48 h
LXFL 529 = test system: LXFL 529
DMS-114 = test system: DMS-114
HOP-18 = test system: HOP-18
DLD-1 = test system: DLD-1
SNB-78 = test system: SNB-78
DMS-273 = test system: DMS-273
M19-MEL = test system: M19-MEL
RXF 631 = test system: RXF 631
XF498 = test system: XF498

| SMILES | GI50 (LXFL 529) | GI50 (DMS-114) | GI50 (HOP-18) | GI50 (DLD-1) | GI50 (SNB-78) | GI50 (DMS-273) | GI50 (M19-MEL) | GI50 (RXF 631) | GI50 (XF498) |
| --- | --- | --- | --- | --- | --- | --- | --- | --- | --- |
| COC(=O)CCC(=O)CC(=O)C(=O)Nc1ccc(F)cc1 | > 100 µM (inactive) | > 100 µM (inactive) | > 100 µM (inactive) | > 100 µM (inactive) | > 100 µM (inactive) | > 100 µM (inactive) | > 100 µM (inactive) | – | – |
| Cc1cc2c(cc1C)[n+]([O-])c(C(=O)CC(=O)C(=O)Nc1ccccc1C)c(C)[n+]2[O-] | 84.7 µM (inactive) | – | 30.5 µM (inactive) | – | > 100 µM (inactive) | > 100 µM (inactive) | > 100 µM (inactive) | 32 µM (inactive) | – |
| C[C@]12CCC3[C@@H](CC[C@@H]4c5nonc5CC[C@]34C)C1CCC2=O (some centres undefined) | 23.3 µM (inactive) | 20.6 µM (inactive) | 43.9 µM (inactive) | – | 23.2 µM (inactive) | 19.5 µM (inactive) | 21.6 µM (inactive) | 38.2 µM (inactive) | 19.1 µM (inactive) |
| O=C1c2ccccc2C(=O)c2c(O)ccc(O)c21 [QUINIZARIN] | > 100 µM (inactive) | > 100 µM (inactive) | – | 61.9 µM (inactive) | > 100 µM (inactive) | > 100 µM (inactive) | 21.8 µM (inactive) | – | – |
| O=C(O)CN(c1ccc(F)cc1)S(=O)(=O)c1ccccc1 | > 100 µM (inactive) | – | > 100 µM (inactive) | > 100 µM (inactive) | – | > 100 µM (inactive) | > 100 µM (inactive) | > 100 µM (inactive) | > 100 µM (inactive) |
| O=C1C[C@@H]2[C@@H](CCC23CCCC3)N1 | > 100 µM (inactive) | – | > 100 µM (inactive) | > 100 µM (inactive) | > 100 µM (inactive) | > 100 µM (inactive) | > 100 µM (inactive) | – | – |
| COc1ccc2c(CCNC(=O)/C=C/c3ccccc3)c(C(C)=O)[nH]c2c1[N+](=O)[O-] | 10 µM (inactive) | 13.6 µM (inactive) | – | – | 40.2 µM (inactive) | 5.64 µM (inactive) | – | 13.2 µM (inactive) | – |
| COC1=C(OC)C(=O)c2cc(C)c(=O)c(C)cc2C1=O | 4.36 µM (inactive) | 3.27 µM (inactive) | 16.3 µM (inactive) | 22.3 µM (inactive) | 18.5 µM (inactive) | 25.4 µM (inactive) | 3.37 µM (inactive) | 50.6 µM (inactive) | – |
| O=C1c2ccccc2C(=O)c2c(O)c(O)cc(O)c21 [PURPURIN] | 37.2 µM (inactive) | – | – | 31.5 µM (inactive) | 38.2 µM (inactive) | 38.1 µM (inactive) | 36.7 µM (inactive) | 39.4 µM (inactive) | 22.9 µM (inactive) |
| Cc1c(C)n(COCCO)c2ncnc(N)c12 | > 100 µM (inactive) | – | > 100 µM (inactive) | > 100 µM (inactive) | – | > 100 µM (inactive) | > 100 µM (inactive) | – | > 100 µM (inactive) |
| CC1OC(=O)C(C(C)C)NC(=O)C(C(C)C)OC(=O)C(C(C)C)NC(=O)C(C)OC(=O)C(C(C)C)NC(=O)C(C(C)C)OC(=O)C(C(C)C)NC(=O)C(C)OC(=O)C(C(C)C)NC(=O)C(C(C)C)OC(=O)C(C(C)C)NC1=O (centres undefined) | – | 0.0025 µM (active) | 0.0337 µM (active) | 0.00326 µM (active) | 0.00391 µM (active) | 0.0025 µM (active) | 0.00367 µM (active) | – | – |
| O=S1(=O)NN=C(NCc2ccc(Cl)cc2)c2ccccc21 | 61.1 µM (inactive) | > 100 µM (inactive) | – | 95.1 µM (inactive) | > 100 µM (inactive) | > 100 µM (inactive) | > 100 µM (inactive) | > 100 µM (inactive) | 90.6 µM (inactive) |
| COc1cc(C2C3=C(COC3=O)Oc3cc4c(cc32)OCO4)cc(OC)c1OC (centres undefined) | 0.00718 µM (active) | 0.00962 µM (active) | 0.16 µM (active) | 0.022 µM (active) | 0.00849 µM (active) | 0.01 µM (active) | 0.0269 µM (active) | – | – |
| C=CC1=CSNN1 | > 100 µM (inactive) | > 100 µM (inactive) | > 100 µM (inactive) | > 100 µM (inactive) | – | > 100 µM (inactive) | > 100 µM (inactive) | – | – |
| C=C1CC2CC[C@@]34C[C@@H]5O[C@@H]6C(O[C@H]7CC[C@H](CC(=O)OC8[C@@H](C)C9OC%10C[C@]%11(C[C@@H]%12O[C@@]%13(C[C@@H](C)[C@@H]%12O%11)C[C@H](C)[C@@H]%11OC%12CC(C(O)CO)OC%12C[C@@H]%11O%13)OC%10CC9O[C@H]8C[C@H]8O[C@@H](CC[C@@H]1O2)C[C@@H](C)C8=C)O[C@@H]7[C@@H]6O3)C5O4 (some centres undefined) | 0.000564 µM (active) | – | – | 0.00267 µM (active) | 0.00178 µM (active) | 0.000499 µM (active) | – | 0.000603 µM (active) | 0.000267 µM (active) |
